Measurements reported in article PMC8348142, “Antimicrobial Peptide Modifications against Clinically Isolated Antibiotic-Resistant Salmonella” (Molecules, 2021).
Marks after values point to notes of the source that are not given here. Ends that are not written are not given here.

How the values were obtained:
[1] = Overall hydrophobicity from RP-HPLC data (percent acetonitrile at elution); assay type: physicochemical; conditions: percentage of acetonitrile at which the peptide eluted, more % ACN = more hydrophobic
[2] = tested on: clinical Salmonella isolates; experiment: MBC, drop plate method, and MBC/MIC mode of action; assay type: cell-based; conditions: for MBC: drop plate on MHA from MIC plate, 37 °C, 18 h, thrice
Method: All 12 isolates of Salmonella used in this study were clinical isolates and anonymous left-overs from laboratory diagnoses. They were maintained in a 20% glycerol (Sigma-Aldrich) stock at −80 °C and further cultured on Mueller-Hinton agar (MHA, Oxoid, Hampshire, UK) at 37 °C for 18 h to obtain single colonies for antimicrobial assays. This study was approved by the Ethics Committee of the Faculty of Tropical Medicine (Mahidol University, Bangkok, Thailand; MUTM-EXMPT 2017-007).
The plate derived from the MIC assay was immediately tested for the MBC using a drop plate method. A volume of 10 µL of the culture from individual wells at MIC, 2MIC, and 4MIC was dropped on MHA plates. […] The experiment was thrice performed.
In order to determine whether the peptides have bacteriostatic or bactericidal activity, a ratio of MBC to MIC (MBC/MIC) was applied. The ratio >4 was indicative of bacteriostatic peptide, and ≤4 was inferred as bactericidal peptide.

[3] = tested on: clinical Salmonella isolates; experiment: Antibiofilm: inhibition of initial cell attachment, crystal violet; assay type: cell-based; conditions: 24 h, 30 °C, polystyrene plate, crystal violet OD590
Method: The effect of peptides on biofilm formation was tested according to the method described by Sandasi et al. with slight modifications.
Bacterial suspensions of 5 × 10^5 CFU/mL in MHB were prepared as described above. […] The plates were incubated to grow biofilms for 24 h at 30 °C. The incubations of bacteria without peptide and MHB without bacteria were employed as positive (100%) control and negative (0%) control for biofilm growth, respectively. The assay was carried out twice.
The biofilm biomasses obtained from the antibiofilm assay plates were quantified by the crystal violet (CV) staining method with minor modifications. After incubating the plates to grow the biofilms, the growth medium and free bacterial cells were gently removed from the wells and then rinsed thrice with water. The plates were air-dried and subsequently 60 °C oven-dried for 30 min. Each well was stained with 125 µL of 0.1% CV (Merck, Burlington, MA, USA) solution for 15 min. The solution was removed from the wells and further thrice rinsed with water. The biomass bound CV was dissolved with 125 µL of 95% ethanol (Merck) for 5 min, and was transferred into a flat-bottom PS 96-well plate (Jet Biofil, Guangzhou, China). Absorbance values at 590 nm (OD590) of the dissolved solutions were measured by a microplate reader (Tecan Sunrise, Männedorf, Switzerland). Mean OD590 values were determined and all were subtracted by mean OD590 of MHB (negative control) prior to calculate the inhibition (%) as; ((OD590 (no peptide) − OD590 (peptide))/(OD590 (no peptide)) × 100.

[4] = tested on: sheep red blood cells; experiment: Hemolytic activity assay; assay type: cell-based; conditions: for percent hemolysis: 2% sRBCs in PBS, 37 °C, 1 h, OD540, triplicate mean
Method: The peptide toxicity to the mammalian system was screened based on the hemolytic test by measuring the hemoglobin released from ruptured red blood cells (RBCs). In this study, sheep RBCs (sRBCs) were employed. They were thrice washed and prepared as a suspension in phosphate-buffered saline (PBS, Oxoid). A suspension of 2% sRBCs was incubated with 2-fold serial dilutions of peptide (final concentrations; 256 to 1 µM in a total volume of 200 µL) at 37 °C for 1 h. The solutions of 0.1% (final concentration) Triton X-100 (Sigma-Aldrich) and PBS containing the peptide solvent were used instead of the peptides as the controls of hemolysis at 100% and 0%, respectively. Thereafter, the post-incubated suspensions were centrifuged (1000× g, 3 min) to pelletize residual sRBCs. The supernatants were then transferred into a flat-bottom PS 96-well plate and were measured the absorbance at 540 nm (OD540) by a microplate reader. The test was conducted in triplicate and the mean OD540 was used to calculate the hemolysis (%) as; ((OD540 (peptide) − OD540 (PBS + peptide solvent))/(OD540 (0.1% Triton X-100) − OD540 (PBS + peptide solvent))) × 100. The hemolytic concentration 50 (HC50), a concentration inducing 50% hemolysis, was determined.
The GraphPad Prism version 7.00 (GraphPad Software, La Jolla, CA, USA) was applied for all statistical analyses and data visualizations. Replicate quantitative results were calculated and shown as mean ± SD, unless otherwise specified. The HC50 values were determined using nonlinear regression analysis. The paired t-test and repeated measures one-way ANOVA with Tukey’s multiple comparison test were applied to compare between 2 groups and among 3 or more groups, respectively. The comparisons were considered as a statistically significant difference when a p-value < 0.05.

## FIRRIARLLRRIF-NH2 [Kn2-5R-NH2]
[1]
  ACN (%) at elution, overall hydrophobicity: 42.1%
[2]; geometric mean over 12 clinical Salmonella isolates
  GM of MBC: 4 µM
[2]; isolate 5 (Enteritidis)
  MBC: 4 µM
[2]; isolate 7 (Typhimurium)
  MBC: 4 µM
[2]; isolate 11 (I 1,4:i:-)
  MBC: 4 µM
[2]; isolate 18 (Stanley)
  MBC: 4 µM
[2]; isolate 26 (Typhimurium)
  MBC: 4 µM
[2]; isolate 27 (Typhimurium)
  MBC: 4 µM
[2]; isolate 55 (Typhimurium)
  MBC: 4 µM
[2]; isolate 61 (Enteritidis)
  MBC: 4 µM
[2]; isolate 69 (Typhimurium)
  MBC: 4 µM
[2]; isolate 76 (Enteritidis)
  MBC: 4 µM
[2]; isolate 78 (Enteritidis)
  MBC: 4 µM
[2]; isolate 107 (Typhimurium)
  MBC: 4 µM
[2]; ≤4 bactericidal, >4 bacteriostatic, 12 clinical Salmonella isolates
  MBC/MIC ratio: 1
[3]; 0.25MBC, isolate 5
  Inhibition (%) of cell attachment: 69%
[3]; 0.25MBC, isolate 7
  Inhibition (%) of cell attachment: 73.6%
[3]; 0.25MBC, isolate 11
  Inhibition (%) of cell attachment: 64.3%
[3]; 0.25MBC, isolate 18
  Inhibition (%) of cell attachment: 25%
[3]; 0.25MBC, isolate 26
  Inhibition (%) of cell attachment: 88.2%
[3]; 0.25MBC, isolate 27
  Inhibition (%) of cell attachment: 79.1%
[3]; 0.25MBC, isolate 55
  Inhibition (%) of cell attachment: 73.3%
[3]; 0.25MBC, isolate 61
  Inhibition (%) of cell attachment: 33.3%
[3]; 0.25MBC, isolate 69
  Inhibition (%) of cell attachment: 40%
[3]; 0.25MBC, isolate 76
  Inhibition (%) of cell attachment: 79.1%
[3]; 0.25MBC, isolate 78
  Inhibition (%) of cell attachment: 43.9%
[3]; 0.25MBC, isolate 107
  Inhibition (%) of cell attachment: 78.3%
[3]; 0.5MBC, isolate 5
  Inhibition (%) of cell attachment: 100%
[3]; 0.5MBC, isolate 7
  Inhibition (%) of cell attachment: 93%
[3]; 0.5MBC, isolate 11
  Inhibition (%) of cell attachment: 100%
[3]; 0.5MBC, isolate 18
  Inhibition (%) of cell attachment: 58.3%
[3]; 0.5MBC, isolate 26
  Inhibition (%) of cell attachment: 100%
[3]; 0.5MBC, isolate 27
  Inhibition (%) of cell attachment: 100%
[3]; 0.5MBC, isolate 55
  Inhibition (%) of cell attachment: 84.1%
[3]; 0.5MBC, isolate 61
  Inhibition (%) of cell attachment: 63.2%
[3]; 0.5MBC, isolate 69
  Inhibition (%) of cell attachment: 64.8%
[3]; 0.5MBC, isolate 76
  Inhibition (%) of cell attachment: 100%
[3]; 0.5MBC, isolate 78
  Inhibition (%) of cell attachment: 98.9%
[3]; 0.5MBC, isolate 107
  Inhibition (%) of cell attachment: 100%
[4]; concentration inducing 50% hemolysis of sRBCs, nonlinear regression, unit (µM)
  HC50 (hemolytic concentration 50): 67.09 µM
[4]; peptide 1 µM
  percent hemolysis: 0.1%
[4]; peptide 2 µM
  percent hemolysis: 0.3%
[4]; peptide 4 µM
  percent hemolysis: 2 * %
[4]; peptide 8 µM
  percent hemolysis: 2.5%
[4]; peptide 16 µM
  percent hemolysis: 5.4%
[4]; peptide 32 µM
  percent hemolysis: 16.9%
[4]; peptide 64 µM
  percent hemolysis: 40.3%
[4]; peptide 128 µM
  percent hemolysis: 99.3%
[4]; peptide 256 µM
  percent hemolysis: 99.5%
[4]; sRBCs, 60 min, 256–1 µM tested
  concentration required for the initiation of hemolysis: 1000 nM
